Reference: publication PMC6030563, “Type 2 NADH Dehydrogenase Is the Only Point of Entry for Electrons into the Streptococcus agalactiae Respiratory Chain and Is a Potential Drug Target” (mBio, 2018)

Columns and labels:
S. agalactiae cells = experiment: Inhibition of cell growth overnight under respiration permissive conditions (GI50); assay type: cell-based, Streptococcus agalactiae; conditions: for GI50: Streptococcus agalactiae, overnight growth, respiration permissive conditions, read-out: GI50 (concentration that causes 50% inhibition of cell growth); for effect on cell growth: whole cells growing under respiration permissive conditions
S. agalactiae NDH-2 [1] = target: T1, S. agalactiae NDH-2 (Streptococcus agalactiae, UniProt Q8E3H1); experiment: Inhibition of isolated NDH-2 NADH:quinone oxidoreductase activity (FDA-approved drug library screen and IC50); conditions: for inhibition at 25 µM: read-out: inhibition of enzymatic activity
T1 sequence (Q8E3H1 2-402 limits assumed): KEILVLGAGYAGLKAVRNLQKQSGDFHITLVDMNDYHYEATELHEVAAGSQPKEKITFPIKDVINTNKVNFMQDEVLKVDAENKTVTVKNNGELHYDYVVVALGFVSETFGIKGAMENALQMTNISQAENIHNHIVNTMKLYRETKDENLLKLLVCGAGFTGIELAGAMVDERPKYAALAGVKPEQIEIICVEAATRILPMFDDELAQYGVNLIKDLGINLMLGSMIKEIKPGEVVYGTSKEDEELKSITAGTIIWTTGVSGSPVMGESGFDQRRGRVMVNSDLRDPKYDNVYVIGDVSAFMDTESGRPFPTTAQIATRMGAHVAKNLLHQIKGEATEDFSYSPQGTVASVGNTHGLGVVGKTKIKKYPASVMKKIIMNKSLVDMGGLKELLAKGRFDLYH

S. agalactiae NDH-2 [2] = target: T1, S. agalactiae NDH-2; experiment: NDH-2 enzyme activity and kinetic parameters with NADH and soluble quinone analogues; assay type: biochemical
Protocol: The rate of NADH oxidation was determined using a UV-Vis spectrophotometer (Agilent Technologies model 8453) by monitoring absorbance at 340 nm (NADH oxidation) upon addition of 100 µM NADH in the presence of 2 nM enzyme and a 100 µM concentration of a quinone soluble analogue. Assays were performed at 37°C in buffer B (50 mM sodium phosphate buffer [pH 7], 150 mM NaCl) plus 125 µg ml^−1 of soy asolectin (Sigma) and 20 µM FAD. For determination of kinetic constants, 2 to 200 µM NADH and 2 to 200 µM of DMN were added to the reaction mixture containing 2 nM enzyme. Enzyme rates are expressed as a turnover number (kcat) based on moles of NADH oxidized per second per mole of enzyme.

Porphyromonas gingivalis = tested on: Porphyromonas gingivalis; design: method as in PMID 28087617; conditions: cited from earlier work
[3] = tested on: S. agalactiae Δnox2 strain; experiment: Overnight growth and oxygen consumption of the Δnox2 strain with zafirlukast
Streptococcus mutans = tested on: Streptococcus mutans; design: method as in PMID 28087617; conditions: cited from earlier work
M. tuberculosis = tested on: M. tuberculosis; design: method as in PMID 23439641; conditions: cited from earlier work
S. agalactiae WT cells = conditions: Streptococcus agalactiae, read-out: inhibition of respiration (oxygen consumption)
S. aureus NdhC = tested on: S. aureus NdhC; design: method as in PMID 24709059; conditions: cited from earlier work

Structure (SMILES) | GI50 (S. agalactiae cells) | IC50 (S. agalactiae NDH-2 [1]) | inhibition at 25 µM (S. agalactiae NDH-2 [1]) | also measured
CCCCC(CC)CNC(=N)NC(=N)NCCCCCCNC(=N)NC(=N)NCC(CC)CCCC (stereo not shown) [Alexidine] | 2.7 ± 0.51 µM | 16.8 ± 1.26 µM | ≥ 80% | 
CC[C@H](C)C[C@H](C)CCCCCCCCC(=O)N[C@H]1C[C@@H](O)[C@@H](NCCN)NC(=O)[C@@H]2[C@@H](O)CCN2C(=O)[C@H]([C@H](O)CCN)NC(=O)[C@H]([C@H](O)[C@@H](O)c2ccc(O)cc2)NC(=O)[C@@H]2C[C@@H](O)CN2C(=O)[C@H]([C@@H](C)O)NC1=O [Caspofungin] | 41 ± 2.62 µM | 15.2 ± 2.33 µM | ≥ 80% | 
Cc1cc(C(C#N)c2ccc(Cl)cc2)c(Cl)cc1NC(=O)c1cc(I)cc(I)c1O (stereo not shown) [Closantel] | 0.25 ± 0.04 µM | 5.34 ± 0.65 µM | ≥ 80% | 
CC1=C(C)C(=O)c2ccccc2C1=O [DMN, 2,3-dimethyl-1,4-naphthoquinone] |  |  |  | turnover number (S. agalactiae NDH-2 [2]; with DMN as electron acceptor): about 800 NADH/s^−1
NC(=O)C1=CN([C@@H]2O[C@H](COP(=O)(O)OP(=O)(O)OC[C@H]3O[C@@H](n4cnc5c(N)ncnc54)[C@H](O)[C@@H]3O)[C@@H](O)[C@H]2O)C=CC1 [NADH] |  |  |  | Km (S. agalactiae NDH-2 [2]; 2 nM enzyme, 2 to 200 µM NADH and DMN, 37°C, pH 7, read-out: Km for the enzyme's substrates): 11 µM
COC1=C(OC)C(=O)C(CC=C(C)C)=C(C)C1=O [Q1, ubiquinone-1] |  |  |  | enzyme activity corresponding to 100% (NADH oxidation) (S. agalactiae NDH-2 [2]; 100 µM quinone analogue, 100 µM NADH, Fig. 2C): 4,190 NADH s^−1
CSc1nc2cc(Cl)c(Oc3cccc(Cl)c3Cl)cc2[nH]1 [Triclabendazole] | 15.3 ± 1.92 µM | 0.14 ± 0.02 µM | ≥ 80% | 
COc1cc(C(=O)NS(=O)(=O)c2ccccc2C)ccc1Cc1cn(C)c2ccc(NC(=O)OC3CCCC3)cc12 [Zafirlukast] | 6.07 ± 0.1 µM | 0.83 ± 0.07 µM | ≥ 80% | activity against Porphyromonas gingivalis (Porphyromonas gingivalis): antibacterial and antibiofilm activity; growth under respiration permissive compared to nonpermissive conditions ([3]; Δnox2 strain grown overnight with 7.5 µM zafirlukast (~GI50)): does not exhibit enhanced growth; oxygen utilization compared to cells grown in the absence of zafirlukast ([3]; Δnox2 strain grown overnight with 7.5 µM zafirlukast, respiration permissive): substantially lower; activity against Streptococcus mutans (Streptococcus mutans): antibacterial and antibiofilm activity; activity against M. tuberculosis (M. tuberculosis): bactericidal activity; inhibition at 7.5 µM (S. agalactiae WT cells): 90%
CCOc1nc2cccc(C(=O)O)c2n1Cc1ccc(-c2ccccc2-c2nnn[nH]2)cc1 [candesartan] |  |  | ≥ 80% | effect on cell growth (S. agalactiae cells): no effect on cell growth
Oc1c(Cl)cc(Cl)c(Cl)c1Cc1c(O)c(Cl)cc(Cl)c1Cl [hexachlorophene] |  |  |  | inhibition of enzymatic activity (S. agalactiae NDH-2 [1]; 25 µM each compound, pure enzyme, NADH and menadione): at least 80%
O=c1c(O[C@@H]2O[C@H](CO)[C@@H](O)[C@H](O)[C@H]2O)c(-c2ccc(O)c(O)c2)oc2cc(O)cc(O)c12 [isoquercetin] |  |  | ≥ 80% | effect on cell growth (S. agalactiae cells): no effect on cell growth
CCCCOc1ccc(OCCCN2CCOCC2)cc1 [pramoxine] |  |  | ≥ 80% | effect on cell growth (S. agalactiae cells): no effect on cell growth
CSc1ccc2c(c1)N(CCC1CCCCN1C)c1ccccc1S2 (stereo not shown) [thioridazine] |  |  |  | inhibitory effect on S. aureus NdhC (S. aureus NdhC): strong inhibitory effect
CN1CCN(CCCN2c3ccccc3Sc3ccc(C(F)(F)F)cc32)CC1 [trifluoperazine] |  |  |  | inhibition of S. agalactiae NDH-2 (S. agalactiae NDH-2 [1]): not inhibited; inhibitory effect on S. aureus NdhC (S. aureus NdhC): strong inhibitory effect
